Measurements taken from patent publication US5312900A, “23K protein with binding specificity for queuine” (La Jolla Cancer Research Foundation, priority 1991, dated 1994).
“Also recorded” adds a separate entry of the source.

Tests used:
[1] = system: ^125 I-Queb (23K protein); experiment: Binding of ^125 I-Queb to ligand-sepharose; set-up: species or system bovine; conditions: for Unbound CPM: 1×10^6 cpm ^125 I-Queb incubated 2 hours with ligand-sepharose, CPM in supernatant and three PBS/Ca++; for Unbound CPM / Bound CPM: Mg++ washes, n = 3; for Bound CPM: CPM associated with sepharose after removal of supernatant and three PBS/Ca++, ± S.D.; for % Bound: share of available ^125 I-Queb bound to ligand-sepharose; for Binding of ^125 I-Queb to ligand-sepharose and its elution (in words): successive elution with 20mM EDTA, 1M NaCl, 1M urea, 8M urea
Method: Queb was isolated from the 15% SDS-PA gels by electroelution, and labelled with ^125 I according to Example IV. […] Equal quantities (1×10^6 cpm, 50 μl ) of ^125 I-Queb were incubated for 2 hours with equal aliquots (50 μl ) of ligand-sepharose. The buffer was then isolated and the sepharose was washed with PBS until less than 1×10^4 cpm were measured in the eluent.

Queb = experiment: Affinity chromatography of BAF proteins on ligand-sepharose with stepwise elution; assay type: binding, bovine; conditions: third trimester BAF; elution with 20 mM EDTA, 1M NaCl, 1M urea, 8M urea
Description: The isolation of Queuine binding factors was completed using affinity chromatography. CNBr-activated sepharose 4B (Pharmacia) was coupled with Queuine, guanosine or glycine using the manufacturers described procedure. The coupling ratio of Queuine to the amount of dry sepharose was 2.7 μmole to 0.1 g and the ratio of guanosine to sepharose was 1.3 μmole to 0.1 g. The procedure used targeted coupling of Queuine and guanosine at the 2-amino group of the purine ring.
The affinity-sepharose was equilibrated with phosphate buffered saline (PBS) containing 2 mM CaCl2, and MgCl2 contained in a glass pipette. The sample was allowed to flow through the column containing the affinity-sepharose, and the bound material was eluted with a successive series of PBS buffers (pH 7.5) containing: 20 mM EDTA, 1M NaCl, 1M urea, 8M urea. Once eluted, the protein was precipitated with 95% ethanol containing 0.5M potassium acetate, washed twice in 95% ethanol, and then solubilized in SDS-PAGE sample buffer, 0.25M tris-HCl, pH 6.8; 10% glycerol; 2% SDS; 0.0025% bromophenol blue.
Third trimester BAF (50 ml) was passed over a 0.4 ml Queuine-sepharose column. The column was then washed with PBS containing 2mM of CaCl2 and MgCl2 until the eluent contained<0.01 OD (280 nm). […] Eluent fractions (200 μl ) were collected and spectrophotometrically monitored (280 nm). […]

HL-60 cells = experiment: Differentiation response of HL-60 cells; assay type: cell-based; conditions: TPA-induced differentiation where stated
[2] = system: HL 60 cells (ATCC No. CCL 240); experiment: Cell growth of HL 60 cells; assay type: cell-based
^125 I-Queb = experiment: Effect of TPA on ^125 I-Queb binding to Queuine-sepharose; set-up: species or system bovine; conditions: TPA at 50% of the concentration of Queuine bound to sepharose
Method: TPA, at 50% of the concentration of the Queuine bound to sepharose, was evaluated for its ability to antagonize ^125 I-Queb binding to Queuine-sepharose. FIG. 3A illustrates the ^125 I-Queb binding without TPA and FIG. 3B illustrates the results with TPA. […] However, the elution patterns of ^125 I-Queb from the Queuine-sepharose was altered in the TPA samples.

Unbound CPM [1]	Bound CPM [1]	Binding of ^125 I-Queb to ligand-sepharose and its elution (in words) [1]	Binding of ^125 I-Queb to ligand-sepharose and its elution (in words) ([1]; listed as guanine)	Structure (SMILES)	% Bound [1]	Binding of Queb from BAF to ligand-sepharose column (Queb)	Effect on differentiation response (in words) (HL-60 cells)	Effect on cell growth (in words) [2]	IC50 ([2]; Homo sapiens, read-out: ID50, inhibition of cell growth)	Effect on amount of ^125 I-Queb bound to Queuine-sepharose (in words) (^125 I-Queb)	Effect on elution of ^125 I-Queb from Queuine-sepharose (in words) (^125 I-Queb; without TPA 8 M urea needed)
843,385 CPM	104,740 ± 12,885 CPM	No ^125 I-Queb was found eluted	minimal amount	Nc1nc2c(ncn2[C@@H]2O[C@H](CO)[C@@H](O)[C@H]2O)c(=O)[nH]1 [Guanosine]	11.05%	no presence of Queb that bound with high affinity; also recorded: did not bind					
404,060 CPM	851,350 ± 91,830 CPM	only eluted by 8M urea		Nc1nc2[nH]cc(CN[C@H]3C=C[C@H](O)[C@@H]3O)c2c(=O)[nH]1 [Queuine]		eluted only under stringent elution conditions of 8 M urea; also recorded: high binding affinity	modulate the ability of cells to respond to differentiation signals; also recorded: markedly sensitized HL-60 cells to a TPA-induced differentiation response; also recorded: inhibit TPA when used concurrently	both stimulate and inhibit	7.8 µM		
				CCCCCCCCCCCCCC(=O)O[C@@H]1[C@@H](C)[C@@]2(O)[C@@H](C=C(CO)C[C@]3(O)C(=O)C(C)=C[C@@H]23)[C@@H]2C(C)(C)[C@]12OC(C)=O [TPA, 12-O-tetradecanoyl-phorbol-13-acetate]						did not quantitatively alter	20 mM EDTA was able to elute and eluted under milder conditions of 20 mM EDTA

Structure (SMILES)	Unbound CPM [1]	Bound CPM [1]	Binding of ^125 I-Queb to ligand-sepharose and its elution (in words) [1]	Binding of ^125 I-Queb to ligand-sepharose and its elution (in words) ([1]; listed as guanine)	% Bound [1]	Binding of Queb from BAF to ligand-sepharose column (Queb)	Effect on differentiation response (in words) (HL-60 cells)	Effect on cell growth (in words) [2]	IC50 ([2]; Homo sapiens, read-out: ID50, inhibition of cell growth)	Effect on amount of ^125 I-Queb bound to Queuine-sepharose (in words) (^125 I-Queb)	Effect on elution of ^125 I-Queb from Queuine-sepharose (in words) (^125 I-Queb; without TPA 8 M urea needed)
NCC(=O)O [Glycine]	802,682 CPM	70,500 ± 8,800 CPM	minimal amount		8.08%						
